Data as given in US9426996B2, “Use of benzoxaboroles as volatile antimicrobial agents on meats, plants, or plant parts” (AgroFresh Inc., priority 2013, dated 2016).

System: Botrytis cinerea
Assay: in vitro inhibition assay for volatile antimicrobial compounds (12-well PDA plates)
Type: cell-based
Details: 14 days at 4° C.; for lowest rate with 100% control of Botrytis cinerea: in vitro, volatile
Procedure: 12-Well (7 milliliter (mL volume per well) microtiter plates are used for the in vitro inhibition assay for volatile antimicrobial compounds. A 3-mL volume of full-strength Potato Dextrose Agar (PDA) is added to each well. After cooling, 1 microliter (μL) of 1×10^6 per mL Botrytis cinerea spore suspension is spot pipetted to the center of the agar. For the first experiment, inoculated plates are allowed to germinate for 5 days at 4° C. For the second experiment, plates are inoculated immediately prior to volatile fungicide treatment. Small Whatman #1 filter disks (Cat. No. 1001-0155) are placed, in duplicate, on the underside of a polyethylene PCR plate sealing film.
The acetone is permitted to evaporate for 5 minutes. The headspace around the Botrytis cinerea inoculum is then sealed inside the well by the film with the adhering disk containing the fungicide. Plates are inverted, placed over the treated disks and sealed to prevent any of the chemical from flaking from the disk and falling onto the inoculated agar. After 14 days of storage at 4° C., cultures are evaluated for percent growth relative to control. Regardless of whether the spores had germinated for 5 days, or if the treatment commenced soon after inoculation of the plates (˜15 minutes); there is 100% control of the fungal pathogen down to 0.005 mg.
A total of 14 antimicrobial compounds are tested using the in vitro inhibition assay described in Example 1. All 14 compounds are applied to the Whatman disks, in duplicate, in a dose dependent manner (0.31 to 0.0006 mg/disk). […] Other compounds, such as Compound C, Compound D, and Compound E conferred 100% control down to 0.023, 0.04, and 0.08 mg/disk, respectively. Results of nine compounds are summarized in Table 2, where the other five compounds show no detected activity in the ranges tested. […]

Row | Compound | Botrytis inhibition % (in vitro) (0.0006 mg per disk) | Botrytis inhibition % (in vitro) (0.001 mg per disk) | Botrytis inhibition % (in vitro) (0.0024 mg per disk) | Botrytis inhibition % (in vitro) (0.005 mg per disk) | Botrytis inhibition % (in vitro) (0.01 mg per disk) | Botrytis inhibition % (in vitro) (0.023 mg per disk) | Botrytis inhibition % (in vitro) (0.04 mg per disk) | Botrytis inhibition % (in vitro) (0.08 mg per disk) | Botrytis inhibition % (in vitro) (0.16 mg per disk) | Botrytis inhibition % (in vitro) (0.31 mg per disk) | lowest rate with 100% control of Botrytis cinerea
1 | FC(F)(F)c1ccc2c(c1)COB2c1ccccc1 [F] | 0% | 0% | 0% | 8% | 8% | 10% | 18% | 40% | 53% | 70% | 
2 | Fc1ccc2c(c1)COB2c1ccsc1 [Compound D] | 0% | 0% | 15% | 38% | 70% | 80% | 100% | 100% | 100% | 100% | 0.04 mg/disk
3 | Fc1ccc2c(c1)COB2/C=C/c1ccccc1 [Compound E] | 13% | 13% | 28% | 38% | 69% | 79% | 79% | 100% | 100% | 100% | 0.08 mg/disk
4 | Fc1ccc2c(c1)COB2c1ccccc1 [Compound C] | 0% | 15% | 43% | 63% | 83% | 100% | 100% | 100% | 100% | 100% | 0.023 mg/disk
5 | COc1cccc2c1B(O)OC2 [K] | 0% | 0% | 0% | 0% | 0% | 0% | 0% | 5% | 29% | 48% | 
6 | OB1OCc2cc(C(F)(F)F)ccc21 [H] | 0% | 0% | 0% | 0% | 3% | 18% | 38% | 55% | 80% | 85% | 
7 | OB1OCCc2ccccc21 [J] | 0% | 0% | 0% | 0% | 0% | 0% | 5% | 8% | 13% | 50% | 
8 | FC(F)(F)c1ccc2c(c1)COB2c1ccsc1 [G] | 0% | 0% | 0% | 0% | 0% | 3% | 13% | 43% | 78% | 100% | 
